Test results from article PMC5218480 (PLoS ONE, 2017).

Test system: MV-4-11 cells
Experiment: Gene expression microarray analysis (Affymetrix PrimeView) and GSEA
Assay type: cell-based, human
Set-up: RFU PODN (11730768_x_at) / Fold change /veh PODN (11730768_x_at) / RFU LINC00158 (11744669_a_at) / Fold change /veh LINC00158 (11744669_a_at) / RFU DUSP10 (11751237_a_at) / Fold change /veh DUSP10 (11751237_a_at) / RFU ID3 (11757404_x_at) / Fold change /veh ID3 (11757404_x_at) / RFU PLEKHG5 (11737974_s_at) / Fold change /veh PLEKHG5 (11737974_s_at) / RFU LRRC4B (11730491_at) / Fold change /veh LRRC4B (11730491_at) / RFU GIMAP4 (11747438_a_at) / Fold change /veh GIMAP4 (11747438_a_at) / RFU KRT8 (11758183_x_at) / Fold change /veh KRT8 (11758183_x_at) / RFU CNN1 (11734310_a_at) / Fold change /veh CNN1 (11734310_a_at) / RFU VPS37D (11726825_at) / Fold change /veh VPS37D (11726825_at) / RFU C10orf10 (11716522_x_at) / Fold change /veh C10orf10 (11716522_x_at) / RFU KIR2DL2 /// KIR2DL4 /// KIR2DL5A /// KIR2DL5B /// KIR2DS1 /// KIR2DS2 /// KIR2DS3 /// KIR2DS4 /// KIR3DL3 /// KIR3DL3 /// KIR3DS1 (11738374_at) / Fold change /veh KIR2DL2 /// KIR2DL4 /// KIR2DL5A /// KIR2DL5B /// KIR2DS1 /// KIR2DS2 /// KIR2DS3 /// KIR2DS4 /// KIR3DL3 /// KIR3DL3 /// KIR3DS1 (11738374_at) / RFU C1QL1 (11718748_at) / Fold change /veh C1QL1 (11718748_at) / RFU TMPRSS4 (11747572_a_at) / Fold change /veh TMPRSS4 (11747572_a_at) / RFU HAMP (11756126_x_at) / Fold change /veh HAMP (11756126_x_at) / RFU RNFT2 (11725882_a_at) / Fold change /veh RNFT2 (11725882_a_at) / RFU NR4A2 (11747474_a_at) / Fold change /veh NR4A2 (11747474_a_at) / RFU ABCC12 (11746883_a_at) / Fold change /veh ABCC12 (11746883_a_at) / RFU TMEM136 (11760407_x_at) / Fold change /veh TMEM136 (11760407_x_at) / RFU CLDN22 /// WWC2 (11732394_at) / Fold change /veh CLDN22 /// WWC2 (11732394_at) / RFU HLA-DPB1 (11760878_x_at) / Fold change /veh HLA-DPB1 (11760878_x_at) / RFU SPINT1 (11716480_a_at) / Fold change /veh SPINT1 (11716480_a_at) / RFU GAP43 (11754022_s_at) / Fold change /veh GAP43 (11754022_s_at) / RFU A4GNT (11735810_at) / Fold change /veh A4GNT (11735810_at) / RFU PRB3 (11715151_x_at) / Fold change /veh PRB3 (11715151_x_at) / RFU TUBB4B (11761932_at) / Fold change /veh TUBB4B (11761932_at) / RFU CAPN14 (11732068_a_at) / Fold change /veh CAPN14 (11732068_a_at) / RFU TMCC2 (11721928_a_at) / Fold change /veh TMCC2 (11721928_a_at) / RFU IRGQ (11745062_a_at) / Fold change /veh IRGQ (11745062_a_at) / RFU FAM174B (11720279_a_at) / Fold change /veh FAM174B (11720279_a_at) / RFU TMPRSS4 (11748680_a_at) / Fold change /veh TMPRSS4 (11748680_a_at) / RFU FAM212B (11763350_a_at) / Fold change /veh FAM212B (11763350_a_at) / RFU PLEKHG5 (11743358_a_at) / Fold change /veh PLEKHG5 (11743358_a_at) / RFU ZSCAN30 (11745921_a_at) / Fold change /veh ZSCAN30 (11745921_a_at) / RFU CMKLR1 (11741424_a_at) / Fold change /veh CMKLR1 (11741424_a_at) / RFU LOC101060620 /// MAPK8IP1 (11723275_at) / Fold change /veh LOC101060620 /// MAPK8IP1 (11723275_at) / RFU SPTSSB (11747773_x_at) / Fold change /veh SPTSSB (11747773_x_at) / RFU PRSS12 (11739890_at) / Fold change /veh PRSS12 (11739890_at) / RFU BIN1 (11741810_x_at) / Fold change /veh BIN1 (11741810_x_at) / RFU WNT11 (11732464_a_at) / Fold change /veh WNT11 (11732464_a_at) / RFU C10orf10 (11716521_a_at) / Fold change /veh C10orf10 (11716521_a_at) / RFU C5orf56 (11738089_at) / Fold change /veh C5orf56 (11738089_at) / RFU CYB561 (11721691_x_at) / Fold change /veh CYB561 (11721691_x_at) / RFU ANKRD19P (11752326_a_at) / Fold change /veh ANKRD19P (11752326_a_at) / RFU OR2T12 /// OR2T33 /// OR2T8 (11738714_s_at) / Fold change /veh OR2T12 /// OR2T33 /// OR2T8 (11738714_s_at) / RFU VCAN (11748164_a_at) / Fold change /veh VCAN (11748164_a_at) / RFU JSRP1 (11732532_at) / Fold change /veh JSRP1 (11732532_at) / RFU KRTAP10-11 (11738290_x_at) / Fold change /veh KRTAP10-11 (11738290_x_at) / RFU MYO3A (11730013_a_at) / Fold change /veh MYO3A (11730013_a_at) / RFU EBF3 (11725865_a_at) / Fold change /veh EBF3 (11725865_a_at) / RFU CAMK2N1 (11719241_x_at) / Fold change /veh CAMK2N1 (11719241_x_at) / RFU C5orf56 (11738088_a_at) / Fold change /veh C5orf56 (11738088_a_at) / RFU OLFML3 (11715873_a_at) / Fold change /veh OLFML3 (11715873_a_at) / RFU LOC100653217 /// NTM (11731650_a_at) / Fold change /veh LOC100653217 /// NTM (11731650_a_at) / RFU MAPK11 (11762145_a_at) / Fold change /veh MAPK11 (11762145_a_at) / RFU FIZ1 (11724087_x_at) / Fold change /veh FIZ1 (11724087_x_at) / RFU OASL (11726364_x_at) / Fold change /veh OASL (11726364_x_at) / RFU SOX15 (11748057_x_at) / Fold change /veh SOX15 (11748057_x_at) / RFU CD79A (11719716_a_at) / Fold change /veh CD79A (11719716_a_at) / RFU HIST1H1D (11736915_at) / Fold change /veh HIST1H1D (11736915_at) / RFU CASKIN2 (11723855_a_at) / Fold change /veh CASKIN2 (11723855_a_at) / RFU LOC730098 (11760151_x_at) / Fold change /veh LOC730098 (11760151_x_at) / RFU OR4N2 (11742367_at) / Fold change /veh OR4N2 (11742367_at) / RFU PRRT2 (11749266_a_at) / Fold change /veh PRRT2 (11749266_a_at) / RFU SNX32 (11753110_a_at) / Fold change /veh SNX32 (11753110_a_at) / RFU CDHR5 (11726645_a_at) / Fold change /veh CDHR5 (11726645_a_at) / RFU RCAN1 (11760418_a_at) / Fold change /veh RCAN1 (11760418_a_at) / RFU FAM167A (11723789_a_at) / Fold change /veh FAM167A (11723789_a_at) / RFU FAM26E (11764081_at) / Fold change /veh FAM26E (11764081_at) / RFU ISYNA1 (11749810_s_at) / Fold change /veh ISYNA1 (11749810_s_at) / RFU ACY1 (11761880_at) / Fold change /veh ACY1 (11761880_at) / RFU 11764098_at / Fold change /veh 11764098_at / RFU SAMD14 (11745864_x_at) / Fold change /veh SAMD14 (11745864_x_at) / RFU NPB (11741838_a_at) / Fold change /veh NPB (11741838_a_at) / RFU TMPRSS6 (11731388_a_at) / Fold change /veh TMPRSS6 (11731388_a_at) / RFU KRTAP10-2 (11738614_at) / Fold change /veh KRTAP10-2 (11738614_at) / RFU ARHGAP8 /// PRR5-ARHGAP8 (11727945_x_at) / Fold change /veh ARHGAP8 /// PRR5-ARHGAP8 (11727945_x_at) / RFU KRTAP5-7 /// NADSYN1 (11734609_at) / Fold change /veh KRTAP5-7 /// NADSYN1 (11734609_at) / RFU RASL12 (11751679_a_at) / Fold change /veh RASL12 (11751679_a_at) / RFU CDKN2B (11736163_a_at) / Fold change /veh CDKN2B (11736163_a_at) / RFU PRF1 (11729649_at) / Fold change /veh PRF1 (11729649_at) / RFU, ZNF638 /// ZNF638-IT1 / Fold change vs veh, ZNF638 /// ZNF638-IT1 / RFU, PANK3 / Fold change vs veh, PANK3 / RFU, SH3YL1 / Fold change vs veh, SH3YL1 / RFU, ZEB2 / Fold change vs veh, ZEB2 / RFU, NRIP1 / Fold change vs veh, NRIP1 / RFU, PTTG1IP / Fold change vs veh, PTTG1IP / RFU, CAPN2 / Fold change vs veh, CAPN2 / RFU, MED14 / Fold change vs veh, MED14 / RFU, SNORA58 / Fold change vs veh, SNORA58 / RFU, C1orf63 / Fold change vs veh, C1orf63 / RFU, LRRFIP1 / Fold change vs veh, LRRFIP1 / RFU, NDUFAF7 / Fold change vs veh, NDUFAF7 / RFU, SLC12A2 / Fold change vs veh, SLC12A2 / RFU, IBTK / Fold change vs veh, IBTK / RFU, ESF1 / Fold change vs veh, ESF1 / Fold change vs veh, TMEM50B / RFU, TAOK1 / Fold change vs veh, TAOK1 / RFU, ACBD3 / Fold change vs veh, ACBD3 / RFU, TMA16 / Fold change vs veh, TMA16 / RFU, RWDD3 / Fold change vs veh, RWDD3 / RFU, BCAT1 / Fold change vs veh, BCAT1 / RFU, EDEM3 / Fold change vs veh, EDEM3 / RFU, TMEM33 / Fold change vs veh, TMEM33 / RFU, WDR75 / Fold change vs veh, WDR75 / RFU, AHCTF1 / Fold change vs veh, AHCTF1 / RFU, TFRC / Fold change vs veh, TFRC / RFU, ZDHHC17 / Fold change vs veh, ZDHHC17 / RFU, NOM1 / Fold change vs veh, NOM1 / RFU, ARL8B / Fold change vs veh, ARL8B / RFU, ZBTB11 / Fold change vs veh, ZBTB11 / RFU, TAMM41 / Fold change vs veh, TAMM41 / RFU, KIAA1704 /// LOC100996395 / Fold change vs veh, KIAA1704 /// LOC100996395 / RFU, ING1 / Fold change vs veh, ING1 / RFU, TRMT61B / Fold change vs veh, TRMT61B / RFU, FUBP3 / Fold change vs veh, FUBP3 / RFU, TP53 / Fold change vs veh, TP53 / RFU, TNKS2 / Fold change vs veh, TNKS2 / RFU, ZFP14 / Fold change vs veh, ZFP14 / RFU, ACTR2 / Fold change vs veh, ACTR2 / RFU, PPP3R1 / Fold change vs veh, PPP3R1 / RFU, PIK3R1 / Fold change vs veh, PIK3R1 / RFU, HNRNPA1 / Fold change vs veh, HNRNPA1 / RFU, RNF170 / Fold change vs veh, RNF170 / RFU, ZNF28 / Fold change vs veh, ZNF28 / RFU, RNGTT / Fold change vs veh, RNGTT / RFU, OGT / Fold change vs veh, OGT / RFU, BRD1 / Fold change vs veh, BRD1 / RFU, MARS / Fold change vs veh, MARS / RFU, ZNF655 / Fold change vs veh, ZNF655 / RFU, FAHD1 / Fold change vs veh, FAHD1 / RFU, BDP1 / Fold change vs veh, BDP1 / RFU, LRRCC1 / Fold change vs veh, LRRCC1 / RFU, ARID1A / Fold change vs veh, ARID1A / RFU, ZNF146 / Fold change vs veh, ZNF146 / RFU, ZNF330 / Fold change vs veh, ZNF330 / RFU, GPN3 / Fold change vs veh, GPN3 / RFU, C9orf123 / Fold change vs veh, C9orf123 / RFU, N4BP2L2 / Fold change vs veh, N4BP2L2 / RFU, ARFIP1 / Fold change vs veh, ARFIP1 / RFU, FAM179B / Fold change vs veh, FAM179B / RFU, BCL10 / Fold change vs veh, BCL10 / RFU, UHRF1BP1L / Fold change vs veh, UHRF1BP1L / RFU, BET1 / Fold change vs veh, BET1 / RFU, CNOT2 / Fold change vs veh, CNOT2 / RFU, ZNF268 / Fold change vs veh, ZNF268 / Fold change vs veh, ZNF507 / RFU, DGCR2 / Fold change vs veh, DGCR2 / RFU, WDSUB1 / Fold change vs veh, WDSUB1 / Fold change vs veh, HSP90B1 /// MIR3652 / RFU, ADSS / Fold change vs veh, ADSS / RFU, GK / Fold change vs veh, GK / RFU, ZNF148 / Fold change vs veh, ZNF148 / RFU, TAF9 / Fold change vs veh, TAF9 / RFU, SLC1A5 / Fold change vs veh, SLC1A5 / RFU, SLMO2 / Fold change vs veh, SLMO2 / RFU, ABCC4 / Fold change vs veh, ABCC4 / RFU, LOC101060439 /// RAP1B / Fold change vs veh, LOC101060439 /// RAP1B / RFU, RFX7 / Fold change vs veh, RFX7 / RFU, GTPBP10 / Fold change vs veh, GTPBP10 / RFU, CNEP1R1 / Fold change vs veh, CNEP1R1 / RFU, BIVM-ERCC5 /// ERCC5 / Fold change vs veh, BIVM-ERCC5 /// ERCC5 / RFU, ILF3 / Fold change vs veh, ILF3 / RFU 11762660_at / Fold change /veh 11762660_at / RFU VCAN (11757783_s_at) / Fold change /veh VCAN (11757783_s_at) / RFU DDX43 (11728927_at) / Fold change /veh DDX43 (11728927_at) / RFU KRT8 (11758188_x_at) / Fold change /veh KRT8 (11758188_x_at) / RFU NKD1 (11759106_at) / Fold change /veh NKD1 (11759106_at) / RFU SRD5A1 (11742802_a_at) / Fold change /veh SRD5A1 (11742802_a_at) / RFU TPSAB1 /// TPSB2 (11721975_s_at) / Fold change /veh TPSAB1 /// TPSB2 (11721975_s_at) / RFU GSTM3 (11746129_a_at) / Fold change /veh GSTM3 (11746129_a_at) / RFU IL23R (11737362_x_at) / Fold change /veh IL23R (11737362_x_at) / RFU TMEM51 (11727254_a_at) / Fold change /veh TMEM51 (11727254_a_at) / RFU PIWIL2 (11732686_x_at) / Fold change /veh PIWIL2 (11732686_x_at) / RFU ORM1 (11744905_x_at) / Fold change /veh ORM1 (11744905_x_at) / RFU CCDC152 (11743942_at) / Fold change /veh CCDC152 (11743942_at) / RFU ECM1 (11717891_a_at) / Fold change /veh ECM1 (11717891_a_at) / RFU IL23R (11748794_a_at) / Fold change /veh IL23R (11748794_a_at) / RFU TNFAIP8L3 (11732012_x_at) / Fold change /veh TNFAIP8L3 (11732012_x_at) / RFU MBOAT4 (11741988_at) / Fold change /veh MBOAT4 (11741988_at) / RFU 11764193_at / Fold change /veh 11764193_at / RFU TMEM53 (11763286_at) / Fold change /veh TMEM53 (11763286_at) / RFU MAGEB2 (11727129_at) / Fold change /veh MAGEB2 (11727129_at) / RFU TMEM200A (11744735_a_at) / Fold change /veh TMEM200A (11744735_a_at) / RFU CCDC152 (11751479_a_at) / Fold change /veh CCDC152 (11751479_a_at) / RFU FAM211A (11726209_a_at) / Fold change /veh FAM211A (11726209_a_at) / RFU RGS16 (11746705_a_at) / Fold change /veh RGS16 (11746705_a_at) / RFU VCAN (11755009_s_at) / Fold change /veh VCAN (11755009_s_at) / RFU RHOB (11743442_s_at) / Fold change /veh RHOB (11743442_s_at) / RFU RGS16 (11720943_a_at) / Fold change /veh RGS16 (11720943_a_at) / RFU RGS16 (11720944_at) / Fold change /veh RGS16 (11720944_at) / RFU, VPS4B / Fold change vs veh, VPS4B / RFU, CREB1 / Fold change vs veh, CREB1 / RFU, DNAJC13 / Fold change vs veh, DNAJC13 / RFU, GNAQ / Fold change vs veh, GNAQ / RFU, CDK5R1 / Fold change vs veh, CDK5R1 / RFU, ZRANB3 / Fold change vs veh, ZRANB3 / RFU, CUL4A / Fold change vs veh, CUL4A / RFU, CCNY / Fold change vs veh, CCNY / RFU, UFL1 / Fold change vs veh, UFL1 / RFU, COG3 / Fold change vs veh, COG3 / RFU, DIAPH2 / Fold change vs veh, DIAPH2 / RFU, SKA2 / Fold change vs veh, SKA2 / RFU, AFF3 / Fold change vs veh, AFF3 / RFU, LMF1 / Fold change vs veh, LMF1 / RFU, IPO11 / Fold change vs veh, IPO11 / RFU, DFFB / Fold change vs veh, DFFB / RFU, FOXP1 / Fold change vs veh, FOXP1 / RFU, CARD8 / Fold change vs veh, CARD8 / RFU, STRN3 / Fold change vs veh, STRN3 / RFU, ADK / Fold change vs veh, ADK / RFU, RASSF2 / Fold change vs veh, RASSF2 / RFU, WIPF1 / Fold change vs veh, WIPF1 / RFU, LARP1B / Fold change vs veh, LARP1B / RFU, RASA1 / Fold change vs veh, RASA1 / RFU, RB1 / Fold change vs veh, RB1 / RFU, PPFIA1 / Fold change vs veh, PPFIA1 / RFU, MAT2A / Fold change vs veh, MAT2A / RFU, CCT5 / Fold change vs veh, CCT5 / RFU, WDR92 / Fold change vs veh, WDR92 / RFU, CUX1 / Fold change vs veh, CUX1 / RFU, TTC7A / Fold change vs veh, TTC7A / RFU, TMEM135 / Fold change vs veh, TMEM135 / RFU, DEPTOR / Fold change vs veh, DEPTOR / RFU, CPM / Fold change vs veh, CPM / RFU, DNAJB6 / Fold change vs veh, DNAJB6 / RFU, CACNA2D3 / Fold change vs veh, CACNA2D3 / RFU, DTX4 / Fold change vs veh, DTX4 / RFU, TFCP2 / Fold change vs veh, TFCP2 / RFU, GMCL1 /// GMCL1P1 / Fold change vs veh, GMCL1 /// GMCL1P1 / RFU, AEBP2 / Fold change vs veh, AEBP2 / RFU, SNHG1 /// SNORD22 /// SNORD25 /// SNORD26 /// SNORD27 /// SNORD28 /// SNORD29 /// SNORD31 / Fold change vs veh, SNHG1 /// SNORD22 /// SNORD25 /// SNORD26 /// SNORD27 /// SNORD28 /// SNORD29 /// SNORD31 / Fold change (Aza/veh), C12orf56 (ProbeSet 11735607_a_at) / Fold change (ACY-1035/veh), C12orf56 (ProbeSet 11735607_a_at) / Fold change (Aza/veh), FGFR1OP (ProbeSet 11751329_s_at) / Fold change (ACY-1035/veh), FGFR1OP (ProbeSet 11751329_s_at) / Fold change (Aza/veh), VPS36 (ProbeSet 11739960_a_at) / Fold change (ACY-1035/veh), VPS36 (ProbeSet 11739960_a_at) / RFU SYPL1 (11715823_x_at) / Fold change /veh SYPL1 (11715823_x_at) / RFU IGFBP7 (11715501_s_at) / Fold change /veh IGFBP7 (11715501_s_at) / RFU REEP3 (11722064_at) / Fold change /veh REEP3 (11722064_at) / RFU IGLL1 (11728026_x_at) / Fold change /veh IGLL1 (11728026_x_at): dose or concentration left out as unconfirmed
Settings: MV-4-11 cells, 48 hours

Structure (SMILES): Nc1ncn([C@@H]2O[C@H](CO)[C@@H](O)[C@H]2O)c(=O)n1 [azacitidine]
- Fold change /veh KRT8 (11758188_x_at): 1.26
